In US20030055046A1, “Novel pyrido cyclohexenyl phenyl carboxamides tocolytic oxytocin receptor antagonists” (Wyeth, priority 2001, published 2003):
Where a name gives a salt, the structure may show the parent alone.

Tests used:
[1] = biological target: T1, human vasopressin V1a receptor subtype (Homo sapiens, UniProt P37288); experiment: Vasopressin binding in CHO cell membranes expressing human vasopressin V1a subtype receptors; settings: [3H]Manning ligand; for IC50: value in parentheses
T1 construct: host or cells: CHO cells, stably transfected (pZeoSV vector for the Thibonnier cells)
T1 sequence (P37288 whole entry): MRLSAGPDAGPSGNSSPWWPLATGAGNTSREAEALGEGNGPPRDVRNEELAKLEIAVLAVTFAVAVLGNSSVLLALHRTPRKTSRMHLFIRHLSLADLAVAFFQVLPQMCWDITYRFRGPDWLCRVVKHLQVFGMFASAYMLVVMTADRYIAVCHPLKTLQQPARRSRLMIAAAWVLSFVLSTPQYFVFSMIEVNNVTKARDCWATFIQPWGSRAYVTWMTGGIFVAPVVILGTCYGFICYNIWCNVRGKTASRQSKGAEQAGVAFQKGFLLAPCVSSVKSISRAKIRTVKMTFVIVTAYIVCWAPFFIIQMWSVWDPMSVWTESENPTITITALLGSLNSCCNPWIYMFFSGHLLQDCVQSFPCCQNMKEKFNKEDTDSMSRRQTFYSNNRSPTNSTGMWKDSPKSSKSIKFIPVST
Excerpt: Vasopressin Binding in Chinese Hamster Ovary Cell Membranes Expressing Human Vasopressin V1a Subtype Receptors
Chinese hamster ovary cells (CHO cells) stably transfected with the human vasopressin V1a subtype receptors were either obtained from Biosignal Inc., 1744 rue Williams, Montreal, Quebec, Canada or obtained from M. Thibonnier, Case Western Reserve University School of Medicine, Cleveland, Ohio.
A. Passaging and Amplification of Cells:
CHO cells transfected with the human vasopressin V1a subtype receptors obtained from M. Thibonnier (pZeoSV vector) are allowed to grow to confluency (approx. >90%) in T-150 flasks under sterile conditions, in a cell culture medium consisting of F-12 Nutrient Mixture (HAM) with L-glutamine (Gibco Cat.# 11765-054) containing 15 mM HEPES (Gibco Cat.# 15630-080), 1% antibiotic/antimycotic (add 5 mL 100×, Gibco Cat.# 15240-062 per 500 mL F-12), 250 μg/mL Zeocin (add 1.25 mL of 100 mg/mL Invitrogen R-250-01 per 500 mL F-12) and 10% Fetal Bovine Serum (Qualified, heat inactivated, Gibco Cat.# 16140-063). The medium is removed by aspiration and the cells are washed with 10 mL of Hank's Balanced Salt solution (Gibco Cat.# 14175-095). The salt solution is removed by aspiration and the cells are trypsinized with 5 mL of trypsin-EDTA (0.05% trypsin, 0.53 mM EDTA-4Na, Gibco Cat.# 25300-070) for 1 min. The trypsin is removed by aspiration and the cells dislodged by tapping. Cell Culture medium (eg, 30 mL for 1:30 split) is immediately added and mixed well to inactivate trypsin. 1 mL of detached cells is added to new culture flasks containing fresh cell culture medium (eg, into 25 mL per T-150 flask), and mixed gently. The cells are incubated at 37° C. in 5% CO2. The medium is changed at 3 to 4 days interval (or as appropriate). The cells grow to confluency (approx. >75%-95%) within 7-8 days. All steps are done under sterile conditions.
The cells are washed twice gently with Hank's Balanced Salt solution (e.g,. use 10 mL per T-150 flask). The excess is removed and the cells are bathed for 15-30 min. in an enzyme-free Cell Dissociation Buffer (e.g. use 8 mL Hank's Based, Gibco Cat.# 13150-016 per T-150 flask) until the cells are loosened. The contents are transferred to centrifuge tubes (50 mL) kept an ice bath. All subsequent steps are done at 4° C. The tubes are centrifuged at 300×g for 15 min (1380 rpm on SORVAL, Model RT6000D, using the rotor for 50 mL tubes). The supernatant is discarded and the cells suspended in homogeneizing buffer (10 mM Tris-HCl containing 0.25 M sucrose and 1 mM EDTA, pH 7.4) ensuring that the volume of the buffer is about ten times the volume of the cell pellet. The cells are pooled into a centrifuge tube (50 mL) and homogenized with Polytron at setting 6 for 10 sec. The homogenate is transferred into a Potter-Elvjehm homogenizer and homogenized with 3 strokes. The homogenate is centrifuged at 1500×g for 10 min at 4° C. (3100 rpm using SORVAL, model RT6000D, using the rotor for 50 mL tubes). The pellet is discarded. The supernatant is centrifuged at 100,000×g for 60 min. at 4° C. (Beckman L8-80M ultracentrifuge; spin at 37,500 rpm with rotor type 70 Ti for 50 mL tubes; 38,000 rpm with type […] for 15 mL tubes; or 35,800 rpm with rotor type 45Ti). The supernatant is discarded and the pellet suspended in 3 to 4 mL of Tris buffer (50 mM TRIS-HCl, pH 7.4). The protein content is estimated by the Bradford or Lowry method. The volume of the membrane suspension is adjusted with the membrane buffer (50 mM Tris-HCl containing 0.1% BSA and 0.1 mM PMSF) to give 3.0 mg/mL (or as appropriate) of protein. The membranes are aliquoted and stored at −70° C.
C. Radioligand Binding Assay: […]

Row | Compound | V1a % inhibition @ 100 nM [1] | melting point | IC50 [1]
1 | CC1=C(c2ccc(C(=O)N3Cc4ccc(C(=O)N(C)Cc5cccnc5)n4Cc4ccccc43)cc2C)CCC[C@H]1O [Example 3, 10-[4-((3R)-3-Hydroxy-2-methyl-cyclohex-1-en-1-yl)-3-methyl-benzoyl]-10,11-dihydro-5H-pyrrolo[2,1-c][1,4]benzodiazepine-3-carboxylic acid methyl-pyridin-3-yl methyl-amide] | 41% | – | –
2 | Cc1cc(C(=O)N2Cc3ccc(C(=O)N(C)CCc4ccncc4)n3Cc3ccccc32)ccc1C1=CCCCC1 [Example 13, 10-[4-(1-Cyclohex-1-en-1-yl)-3-methylbenzoyl]-N-methyl-N-[2-(4-pyridinyl)ethyl]-10,11-dihydro-5H-pyrrolo[2,1-c][1,4]benzodiazepine-3-carboxamide] | 51% | – | –
3 | Cc1cc(C(=O)N2Cc3ccc(C(=O)NCc4ccccn4)n3Cc3ccccc32)ccc1C1=CCCCC1 [Example 5, 10-[4-(1-Cyclohex-1-en-1-yl)-3-methylbenzoyl]-N-(2-pyridinylmethyl)-10,11-dihydro-5H-pyrrolo[2,1-c][1,4]benzodiazepine-3-carboxamide] | 18% | – | –
4 | COc1cc(C2=CCCCC2)c(Cl)cc1C(=O)N1Cc2ccc(C(=O)N(C)Cc3cccnc3)n2Cc2ccccc21 [Example 2, 10-(5-Chloro-4-cyclohex-1-en-1-yl-2-methoxybenzoyl)-N-methyl-N-(pyridin-3-ylmethyl)-10,11-dihydro-5H-pyrrolo[2,1-c][1,4]benzodiazepine-3-carboxamide L-(+)-tartaric acid salt hemihydrate] | – | – | 1320 nM
5 | CC1=C(c2ccc(C(=O)N3Cc4ccc(C(=O)N(C)Cc5cccnc5)n4Cc4ccccc43)cc2C)CCC[C@H]1O.O=C(O)C(O)C(O)C(=O)O [Example 4, 10-[4-((3R)-3-Hydroxy-2-methyl-cyclohex-1-en-1-yl)-3-methyl-benzoyl]-10,11-dihydro-5H-pyrrolo[2,1-c][1,4]benzodiazepine-3-carboxylic acid methyl-pyridin-3-yl methyl-amide L-(+)-tartaric acid salt] | 61% | – | –
6 | Cc1cc(C(=O)N2Cc3ccc(C(=O)NCc4cccnc4)n3Cc3ccccc32)ccc1C1=CCCCC1 [Example 6, 10-[4-(1-Cyclohex-1-en-1-yl)-3-methylbenzoyl]-N-(3-pyridinylmethyl)-10,11-dihydro-5H-pyrrolo[2,1-c][1 ,4]benzodiazepine-3-carboxamide] | 6% | – | –
7 | Cc1cc(C(=O)N2Cc3ccc(C(=O)N(C)CCc4ccccn4)n3Cc3ccccc32)ccc1C1=CCCCC1 [Example 8, 10-[4-(1-Cyclohex-1-en-1-yl)-3-methylbenzoyl]-N-methyl-N-[2-(2-pyridinyl)ethyl]-10,11-dihydro-5H-pyrrolo[2,1-c][1 ,4]benzodiazepine-3-carboxamide] | 43% | – | –

Other lines, results leading:

Row | V1a % inhibition @ 100 nM [1] | melting point | IC50 [1] | Compound
8 | 54% | – | – | Cc1cc(C(=O)N2Cc3ccc(C(=O)N(C)Cc4cccnc4)n3Cc3ccccc32)ccc1C1=CCCCC1 [Example 11, 10-[4-(1-Cyclohex-1-en-1-yl)-3-methylbenzoyl]-N-methyl-N-(3-pyridinylmethyl)-10,11-dihydro-5H-pyrrolo[2,1-c][1,4]benzodiazepine-3-carboxamide]
9 | 73% | – | – | Cc1cc(C(=O)N2Cc3ccc(C(=O)N4CCN(c5ccncc5)CC4)n3Cc3ccccc32)ccc1C1=CCCCC1 [Example 12, {10-[4-(1-Cyclohex-1-en-1-yl)-3-methylbenzoyl]-10,11-dihydro-5H-pyrrolo[2,1--c][1,4]benzodiazepin-3-yl}[4-(4-pyridinyl)-1-piperazinyl]methanone]
10 | – | 178 to 179 °C | 1090 nM | COc1cc(C2=CCCCC2)c(Cl)cc1C(=O)N1Cc2ccc(C(=O)N(C)Cc3cccnc3)n2Cc2ccccc21 [Example 1, 10-(5-Chloro-4-cyclohex-1-en-1-yl-2-me3thoxybenzoyl)-N-methyl-N-(pyridin-3-ylmethyl)-10,11-dihydro-5H-pyrrolo [2,1-c][1,4]benzodiazepine-3-carboxamide]
11 | 5% | – | – | Cc1cc(C(=O)N2Cc3ccc(C(=O)N4CCN(c5ccccn5)CC4)n3Cc3ccccc32)ccc1C1=CCCCC1 [Example 9, {10-[4-(1-Cyclohex-1-en-1-yl)-3-methylbenzoyl]-10,11-dihydro-5H-pyrrolo[2,1-c][1,4]benzodiazepin-3-yl}[4-(2-pyridinyl)-1-piperazinyl]methanone]
12 | 13% | – | – | Cc1cc(C(=O)N2Cc3ccc(C(=O)NCc4ccncc4)n3Cc3ccccc32)ccc1C1=CCCCC1 [Example 10, 10-[4-(1-Cyclohex-1-en-1-yl)-3-methylbenzoyl]-N-(4-pyridinylmethyl)-10,11-dihydro-5H-pyrrolo[2,1-c][1,4]benzodiazepine-3-carboxamide]
13 | 13% | – | – | Cc1cc(C(=O)N2Cc3ccc(C(=O)NCCc4ccccn4)n3Cc3ccccc32)ccc1C1=CCCCC1 [Example 7, 10-[4-(1-Cyclohex-1-en-1-yl)-3-methylbenzoyl]-N-[2-(2-pyridinyl)ethyl]-10,11-pyrrolo[2,1-c][1,4]benzodiazepine-3-carboxamide]
